Measurements taken from US20100331239A1, “CD14 AND PEPTIDES THEREOF FOR PROTECTION OF CELLS AGAINST CELL DEATH” (THE MEDICAL RESEARCH, INFRASTRUCTURE AND HEALTH SERVICES, priority 2008, published 2010).

What was measured:
[1] = system: intracellular expression of MO2 in lymphocytes; experiment: Blocking of monocyte secretion of CD14 in vitro; intracellular MO2 staining in lymphocytes; assay type: cell-based; conditions: cell secretion blocked; staining with anti MO2 antibodies
Excerpt: Further support for the concept that lymphocytes are capable of MO2 uptake is found in another experiment in which monocyte secretion of CD14 in vitro was blocked with Brefeldin A (a drug blocking the Golgi system thus inhibiting cell secretion).

[2] = system: human lymphocytes and human CD3 positive lymphocytes; experiment: Gliotoxin- or PMA-induced apoptosis of human mononuclear cells cultured overnight; FACS readout by DiOC6(3), 7AAD or cell size; assay type: cell-based; conditions: for protection of lymphocytes from gliotoxin-induced apoptosis: CD3+ cultures, DioC6(3) staining, pMO2 0.5 or 0.25 mg/ml (0.2 and 0.1 mM), FIG. 11; for protective (anti-apoptotic) effect in vitro: DiOC6(3), 7AAD and cell size, FIGS. 11-13
Protocol: The changes in the mitochondria membrane potential can be measured with 3,3′-Dihexyloxacarbocyanine iodide (Dioc6(3)). The binding to the mitochondria membrane is relative to its potential, the highest binding occurs in live and intact cells; the lowest in dead cells. The binding is monitored by flow cytometry (FL1 channel).
After overnight culture (see below), cells are washed in PBS and are treated with 40 nM DiOC6(3) for 15 min at 37° C. Cells are then washed in PBS, stained for lymphocytes surface markers such as CD3/CD4/CD8, with the appropriate antibodies, for 30 min at 4° C., washed again in PBS, resuspended in 0.5 ml PBS and analyzed using the FACS (flow cytometry).
7AAD is a nucleic acid dye that binds to […] DNA, selectively to GC regions of DNA. No binding is observed in live cells. The binding to apoptotic cells is proportional to the degree of apoptosis and membrane damage. The 7AAD fluorescence is detected in the far-red range of the spectrum (650 nm), in the FL3 channel.
After overnight culture (see below), cells are washed with PBS and are stained with monoclonal antibodies (CD3/4/8) for 30 min at 4° C., then washed again in PBS. Cells are then incubated with 7AAD (20 μg/ml) for 20 min at 4° C. in the dark and directly analyzed using the FACS (flow cytometry).
As a result of the process of apoptosis, cells undergo a cytoplasm shrinkage, which can be detected as a decrease in cell size as observed by the forward scatter position of the cells analyzed by FACS; the smaller lymphocytes are apoptotic, the larger are intact.
Mononuclear cells, freshly obtained from peripheral blood on a Ficoll-Hypaque gradient are washed in PBS and resuspended in RPMI supplemented with 10% fetal calf serum, glutamine, antibiotics, non-essential amino acids and sodium pyruvate, at a concentration of 4×10^6 cells per ml. Cells (0.5 ml per well) are incubated overnight, in 24 well plates, in the presence of Gliotoxin (0.1 μg/ml) or PMA (1 μg/ml) and with pMO2 or pSCR peptides (0.2, 0.1, 0.05 mM equivalent to 0.5, 0.25 and 0.125 mg/ml); as a control DMSO—the diluent of the peptides—was used at the appropriate dilution or with recombinant human CD14 (10 and 5 μg/ml). For the experiments aimed at neutralizing the human rCD14, monoclonal antibodies against CD14 or against actin (as a control) are added, together with the CD14, at a final concentration of 15 μg/ml.
After the overnight incubation, cells are processed for apoptosis assessment using the methods described above.
The effect of recombinant human CD14 on the induction of apoptosis in human lymphocytes and in human CD3 positive lymphocytes was tested in vitro. Human mononuclear cells obtained from healthy individuals were incubated with apoptosis inducers, gliotoxin or PMA. […] Namely, recombinant human CD14 protects lymphocytes from gliotoxin-induced apoptosis. […] Two parameters were measured: cell size (A), and mitochondrial membrane potential determined by Dioc6 (3) binding (B). In (A) there is a shift to the left (characteristic to apoptotic cells) under gliotoxin treatment compared to “medium”, and a reversal to normal size in the presence of rhCD14. In (B) low binding of Dioc6 (3) in the presence of gliotoxin (characteristic to apoptotic cells) can be observed, and the effect is reversed by rhCD14.
In addition, in order to investigate the spectrum of effective concentrations of rhCD14, mononuclear cells were cultured overnight in the presence of gliotoxin and varying concentrations of rhCD14, ranging from 10 to 0.6 μg/ml. Apoptosis of CD3+ cells was measured with Dioc6(3). As expected, cells cultured without gliotoxin included a very low number of apoptotic cells, about 0.3% of the cultured cells.
As explained above, the epitopes recognized by this monoclonal MO2 antibody were mapped using a random peptide library, and one of the specific peptides (amino acids 139-160 of CD14; pMO2) was synthesized. […]

[3] = system: CD3 positive and CD3 negative cells; experiment: Intracellular binding / penetration of pMO2-biotin into mononuclear cells (streptavidin-APC, FACS); assay type: cell-based, human
Protocol: The cells were incubated for 3 hours with pMO2-biotin or DMSO (the peptide diluent) as a control. In order to visualize the biotin-labeled pMO2, the cells were washed and stained with anti-CD3 antibodies and fluorescent streptavidin (streptavidin-APC), with or without prior fixation and permeabilization.

[4] = 0.2 mM peptide, gliotoxin, FIGS. 14, 15

Row | Molecule | change of intracellular expression of MO2 in lymphocytes [1] | efficiency in protecting cells from apoptosis [2, 4] | protection of lymphocytes from gliotoxin-induced apoptosis [2] | protective (anti-apoptotic) effect in vitro ([2]; gliotoxin) | percent protection from apoptosis ([2]; 0.05 mM peptide, gliotoxin vs gliotoxin and control diluent, FIG. 14) | efficiency in protecting cells from apoptosis ([2]; 0.1 mM peptide, gliotoxin, FIG. 14) | penetration into lymphocytes ([3]; 3 hours incubation with pMO2-biotin, visualized only upon fixation and permeabilization, FIG. 16) | time of incubation for penetration into the majority of the lymphocytes ([3]; CD3 positive and CD3 negative cells in vitro, FIG. 17) [min] | effect on induced apoptosis of lymphocytes and of CD3 positive lymphocytes ([2]; apoptosis inducers gliotoxin or PMA, added during the incubation) | concentration at which inhibition of apoptosis is already effective ([2]; gliotoxin, overnight, rhCD14 titrated 10 to 0.6 μg/ml, CD3+ cells, Dioc6(3), FIG. 6) [µg/mL]
1 | C[C@H]1CCC/C=C/[C@@H]2C[C@H](O)C[C@H]2[C@H](O)/C=C/C(=O)O1 [Brefeldin A] | substantial decrease |  |  |  |  |  |  |  |  | 
2 | ALGTSLARLSNRLWSVGTAWSR (listed as Homo sapiens) [pSCR, scrambled control peptide based on the same amino acids as pMO2, reference compound] |  | no protection | not | did not show any protective effect |  |  |  |  |  | 
3 | ATGLALSSLRLRNVSWATGRSW [pMO2] |  | very high efficiency | equally protect | retain the anti-apoptotic effect of the whole recombinant human CD14 | about 45% | very high efficiency | penetrates lymphocytes | ≤ 10 |  | 
4 | rhCD14: recombinant human soluble CD14 polypeptide, not anchored to the cell membrane (SEQ ID NO: 5) (protein, listed as Homo sapiens) MERASCLLLLLLPLVHVSATTPEPCELDDEDFRCVCNFSEPQPDWSEAFQCVSAVEVEIHAGGLNLEPFLKRVDADADPRQYADTVKALRVRRLTVGAAQVPAQLLVGALRVLAYSRLKELTLEDLKITGTMPPLPLEATGLALSSLRLRNVSWATGRSWLAELQQWLKPGLKVLSIAQAHSPAFSCEQVRAFPALTSLDLSDNPGLGERGLMAALCPHKFPAIQNLALRNTGMETPTGVCAALAAAGVQPHSLDLSHNSLRATVNPSAPRCMWSSALNSLNLSFAGLEQVPKGLPAKLRVLDLSCNRLNRAPQPDELPEVDNLTLDGNPFLVPGTALPHEGSMNSGVVPACARSTLSVGVSGTLVLLQGARGFA |  |  | equally protect |  |  |  |  |  | blocked significantly | 1.25
